Measurements reported in patent publication US10703748B2, “Diazanaphthalen-3-yl carboxamides and preparation and use thereof” (Samumed, LLC, priority 2017, dated 2020).
pEC50: −log10 of the molar value.

Key:
DYRK1A kinase = DYRK1A kinase (Homo sapiens, UniProt Q13627); assay: DYRK1A kinase activity (Ser/Thr 18 peptide Z-lyte FRET assay); format: biochemical; details: recombinant DYRK1A, 30 μM ATP, one hour at room temperature;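 also: kinase activity read as coumarin/fluorescein emission ratio after development step, with unphosphorylated and phosphorylated peptide forms setting 0% and 100% controls, values from dose-response curves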
GSK3β kinase = GSK3β kinase (Homo sapiens, UniProt P49841); assay: GSK3β kinase activity (Ser/Thr 09 peptide Z-lyte FRET assay); format: biochemical; details: recombinant kinase, 46 μM ATP, one hour at room temperature; read-out: EC50
[1] = system: Tau phosphorylation at Ser396 (pSer396); assay: Tau phosphorylation at Ser396 (pSer396) in SH-SY5Y cells, ELISA / western blot; format: cell-based, human; details: Homo sapiens; SH-SY5Y cells, overnight (16-18 h); read-out: pSer396 Tau EC50;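 also: decrease in pSer396 Tau measured in lysates of treated cells by colorimetric ELISA or chemiluminescent western blot, same pSer396 antibody for both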
Protocol: Two days before treatment, cells were seeded onto 96 well plates at 5×10^4 cells/well.
The above synthesized compounds were screened using the cell assay procedure to assess decrease Tau phosphorylation at Ser396 (pSer396) described below.
Cells were lysed with RIPA buffer complemented with phosphatase and protease inhibitors then lysates were spun down at 12,000 g for 10 min to remove any cellular debris.

[2] = system: secreted cytokines TNFα, IL-6 and KC-GRO; assay: Secreted cytokines in Lipopolysaccharide-stimulated BV-2 cells (Table 9 does not say which cytokine); format: cell-based, mouse; details: Mus musculus, BV-2, 5 h; read-out: EC50
[3] = system: SW480 colon carcinoma cells; assay: Cell viability assay (CellTiter-Glo); details: Homo sapiens; for pEC50: SW480, 96 h; for inhibition at 10 µM: SW480, read-out: percent inhibition at 10 μM
Protocol: Representative compounds were screened using the assay procedure to assess the effect on cell viability as described below.
SW480 colon carcinoma cells were transduced with a lentiviral vector expressing luciferase with a human Sp5 promoter consisting of a sequence of eight TCF/LEF binding sites. […] These stably transduced SW480 cells were expanded in cell culture and used for all further screening activities. Each compound was dissolved in DMSO as a 10 mM stock and used to prepare compound source plates.
For the Cell Viability Assays, the cells were plated at 2,000 cells/well in 384-well plates with a DMEM medium containing 1% fetal bovine serum, and 1% Penicillin-Streptomycin and incubated for four days hours at 37° C. and 5% CO2. Eight replicates of DMSO-treated cells served as controls and cells treated with compound were performed in duplicate.
After incubation, 10 μL of CellTiter-Glo (Promega) was added to each well allowed to incubate for approximately 12 minutes. This reagent “results in cell lysis and generation of a luminescent signal proportional to the amount of ATP present. The amount of ATP is directly proportional to the number of cells present in culture, in agreement with previous reports. The CellTiter-Glo Assay generates a “glow-type” luminescent signal, produced by the luciferase reaction (Promega.com)”.
Dose-response curves were generated and EC50 concentration values were calculated using non-linear regression curve fit in the GraphPad Prism (San Diego, Calif.) or Dotmatics' Studies Software (Bishops Stortford, UK).

[4] = system: Wnt-responsive Sp5-Luc reporter in SW480 colon carcinoma cells; assay: Screening assay for Wnt activity (Sp5-Luc reporter gene assay); details: Homo sapiens; for pEC50: SW480; for inhibition at 10 µM: SW480, read-out: percent inhibition at 10 μM
IL-6 = IL-6 inhibition in LPS-stimulated human peripheral blood mononuclear cells (HTRF); details: Homo sapiens, PBMC; for pEC50: 22 h; for inhibition at 10 µM: read-out: percentage in parentheses after EC50 >10
[5] = system: α-smooth muscle actin (aSMA) positive LL29 cells; assay: Inhibition of the fibrotic process: αSMA staining in TGF-β1 treated LL29 fibroblasts from IPF patients; details: Homo sapiens, Fibroblast; for pEC50: 96 h; for inhibition at 10 µM: read-out: percentage in parentheses after EC50 >10

Sequence of GSK3β kinase (P49841 whole entry): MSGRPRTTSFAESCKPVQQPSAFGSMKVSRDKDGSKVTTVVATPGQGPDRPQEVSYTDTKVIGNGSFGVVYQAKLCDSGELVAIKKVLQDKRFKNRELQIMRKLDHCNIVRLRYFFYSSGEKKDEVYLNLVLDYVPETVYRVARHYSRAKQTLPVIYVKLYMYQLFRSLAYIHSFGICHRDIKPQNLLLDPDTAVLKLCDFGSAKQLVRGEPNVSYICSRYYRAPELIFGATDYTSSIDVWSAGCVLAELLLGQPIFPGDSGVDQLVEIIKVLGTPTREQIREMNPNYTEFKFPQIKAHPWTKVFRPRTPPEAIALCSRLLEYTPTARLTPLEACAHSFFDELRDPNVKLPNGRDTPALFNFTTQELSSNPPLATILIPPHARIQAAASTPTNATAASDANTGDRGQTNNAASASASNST

SMILES | pEC50 (DYRK1A kinase) | pEC50 (GSK3β kinase) | pEC50 [1] | pEC50 [2] | pEC50 [3] | inhibition at 10 µM [3] [%] | pEC50 [4] | inhibition at 10 µM [4] [%] | pEC50 (IL-6) | inhibition at 10 µM (IL-6) [%] | pEC50 [5] | inhibition at 10 µM [5] [%]
Cn1cncc1-c1cnc2cnc(NC(=O)C3CCC(F)(F)CC3)cc2c1 [Compound 3120, 4,4-Difluoro-N-(3-(1-methyl-1H-imidazol-5-yl)-1,7-naphthyridin-6-yl) cyclohexane-1-carboxamide] | 8.05 | 5.88 | 5.61 | 6.19 | < 5.00 | 21.4 | < 5.00 | 16.2 | < 5.00 | 7.4 | < 5.00 | 27
O=C(Nc1cc2cc(-c3cnco3)cnc2cn1)C1CCN(C(=O)CN2CCCC2)CC1 [Compound 3249, N-(3-(Oxazol-5-yl)-1,7-naphthyridin-6-yl)-1-(2-(pyrrolidin-1-yl)acetyl)piperidine-4-carboxamide] | 7.59 | 5.21 | 5.00 | 5.92 | < 5.00 | 26.7 | < 5.00 | 31.5 | 5.08 | – | 5.15 | –
Cn1cc(-c2cc3cc(NC(=O)C4CC4)ncc3cn2)cn1 [Compound 3629, N-(6-(1-Methyl-1H-pyrazol-4-yl)-2,7-naphthyridin-3-yl) cyclopropanecarboxamide] | 8.15 | 8.70 | 7.68 | 5.24 | 6.02 | – | 6.40 | – | 5.56 | – | 7.01 | –
Cn1cc(-c2cc3cc(NC(=O)C4CCN(CCC(F)(F)F)CC4)ncc3cn2)cn1 [Compound 3646, N-(6-(1-Methyl-1H-pyrazol-4-yl)-2,7-naphthyridin-3-yl)-1-(3,3,3-trifluoropropyl)piperidine-4-carboxamide] | 8.70 | 8.40 | 7.10 | < 5.00 | 5.02 | – | 6.66 | – | 5.04 | – | < 5.00 | 12.9
C[C@H]1CCCN1CC(=O)Nc1cc2cc(-c3cnn(C)c3)ncc2cn1 [Compound 3674, (S)—N-(6-(1-Methyl-1H-pyrazol-4-yl)-2,7-naphthyridin-3-yl)-2-(2-methylpyrrolidin-1-yl)acetamide] | 8.15 | 7.68 | 6.72 | 5.17 | 5.16 | – | 6.29 | – | < 5.00 | 1.7 | 6.22 | –
CN(CC(=O)Nc1cc2cc(-c3cnn(C)c3)ncc2cn1)C1CCC1 [Compound 3683, 2-(Cyclobutyl(methyl)amino)-N-(6-(1-methyl-1H-pyrazol-4-yl)-2,7-naphthyridin-3-yl)acetamide] | 8.10 | 8.00 | 6.75 | < 5.00 | < 5.00 | 38.8 | 6.22 | – | < 5.00 | 4.6 | 6.22 | –
Cn1cc(-c2cc3cc(NC(=O)[C@H]4CCCN4)ncc3cn2)cn1 [Compound 3689, (R)—N-(6-(1-Methyl-1H-pyrazol-4-yl)-2,7-naphthyridin-3-yl)pyrrolidine-2-carboxamide] | 7.15 | 8.10 | 6.81 | < 5.00 | < 5.00 | 28.8 | 6.43 | – | < 5.00 | 7.6 | 6.05 | –
CC(C(=O)Nc1cc2cc(-c3cnn(C)c3)ncc2cn1)N1CCCCC1 (centres unmarked) [Compound 3698, N-(6-(1-Methyl-1H-pyrazol-4-yl)-2,7-naphthyridin-3-yl)-2-(piperidin-1-yl) propanamide] | 7.19 | 8.05 | 7.12 | 5.32 | 5.16 | – | 6.54 | – | < 5.00 | 4.6 | 5.97 | –
Cn1cc(-c2cc3cc(NC(=O)C4CCN(S(C)(=O)=O)CC4)ncc3cn2)cn1 [Compound 3699, N-(6-(1-Methyl-1H-pyrazol-4-yl)-2,7-naphthyridin-3-yl)-1-(methylsulfonyl) piperidine-4-carboxamide] | 8.70 | 8.22 | 7.37 | < 5.00 | 5.17 | – | 6.63 | – | < 5.00 | 8.4 | 7.60 | –
Cn1cc(-c2cc3cc(NC(=O)CC4CNCCO4)ncc3cn2)cn1 (centres unmarked) [Compound 3714, N-(6-(1-Methyl-1H-pyrazol-4-yl)-2,7-naphthyridin-3-yl)-2-(morpholin-2-yl) acetamide] | 8.00 | 8.10 | 6.68 | 5.79 | 5.22 | – | 6.07 | – | 5.24 | – | 5.81 | –
Cn1cc(-c2cc3cc(NC(=O)C4CCN(Cc5ncco5)CC4)ncc3cn2)cn1 [Compound 3723, N-(6-(1-Methyl-1H-pyrazol-4-yl)-2,7-naphthyridin-3-yl)-1-(oxazol-2-ylmethyl)piperidine-4-carboxamide] | 8.70 | 8.00 | 6.60 | 7.03 | < 5.00 | 43.7 | 6.07 | – | < 5.00 | 2.8 | < 5.00 | 9.1
CN1CCCN(CC(=O)Nc2cc3cc(-c4cnn(C)c4)ncc3cn2)CC1 [Compound 3733, 2-(4-Methyl-1,4-diazepan-1-yl)-N-(6-(1-methyl-1H-pyrazol-4-yl)-2,7-naphthyridin-3-yl)acetamide] | 7.80 | 7.37 | 6.64 | 5.43 | < 5.00 | 37.3 | 6.29 | – | < 5.00 | 6.2 | 5.74 | –
CN1CCC(Oc2ccc(C(=O)Nc3cc4cc(-c5cnn(C)c5)ncc4cn3)cc2)CC1 [Compound 3772, N-(6-(1-Methyl-1H-pyrazol-4-yl)-2,7-naphthyridin-3-yl)-4-((1-methylpiperidin-4-yl)oxy)benzamide] | 8.10 | 6.41 | 5.14 | ≤ 5.00 | 5.09 | – | 6.66 | – | < 5.00 | 10.6 | 5.95 | –
CN1CCN(Cc2cccc(C(=O)Nc3cc4cc(-c5cnn(C)c5)ncc4cn3)c2)CC1 [Compound 3799, N-(6-(1-Methyl-1H-pyrazol-4-yl)-2,7-naphthyridin-3-yl)-3-((4-methylpiperazin-1-yl)methyl)benzamide] | 7.92 | 6.61 | 5.44 | 7.10 | 5.44 | – | 5.67 | – | < 5.00 | 5.3 | 5.59 | –
Cn1cc(-c2cc3cc(NC(=O)CCc4ccccc4)ncc3cn2)cn1 [Compound 3821, N-(6-(1-Methyl-1H-pyrazol-4-yl)-2,7-naphthyridin-3-yl)-3-phenylpropanamide] | 8.15 | 9.00 | 7.54 | 6.61 | 6.64 | – | 6.75 | – | 5.08 | – | 6.50 | –
Cn1ncc(-c2cc3cc(NC(=O)C4CC5(C4)CN(CCF)C5)ncc3cn2)c1CN1CCCCC1 [Compound 3907, 2-(2-Fluoroethyl)-N-(6-(1-methyl-5-(piperidin-1-ylmethyl)-1H-pyrazol-4-yl)-2,7-naphthyridin-3-yl)-2-azaspiro[3.3]heptane-6-carboxamide] | 7.32 | 7.41 | 6.44 | 5.33 | 5.89 | – | 6.44 | – | 5.06 | – | 5.74 | –
O=C(Nc1cc2cc(-c3cnn4c3CN(CCF)CC4)ncc2cn1)C1CCC(F)(F)CC1 [Compound 3944, 4,4-Difluoro-N-(6-(5-(2-fluoroethyl)-4,5,6,7-tetrahydropyrazolo[1,5-a]pyrazin-3-yl)-2,7-naphthyridin-3-yl)cyclohexane-1-carboxamide] | 8.22 | 7.74 | 6.37 | 6.33 | 5.14 | – | 6.02 | – | < 5.00 | 22.2 | 6.38 | –
Cn1cncc1-c1cc2cc(NC(=O)C3CCC(F)(F)CC3)ncc2cn1 [Compound 4027, 4,4-Difluoro-N-(6-(1-methyl-1H-imidazol-5-yl)-2,7-naphthyridin-3-yl) cyclohexane-1-carboxamide] | 7.68 | 7.14 | 6.66 | ≤ 5.00 | < 5.00 | 26.3 | < 5.00 | 17.5 | < 5.00 | 4 | < 5.00 | 33.9
